Test systems include A549 NSCLC; BT-549 breast; CCRF-CEM leukemia; EKVX NSCLC; M14 melanoma; MDA-MB-231 breast; MOLT-4 leukemia; NCI-H23 lung; NCI/ADR-RES ovarian; PC-3 prostate.
Common to all, as to assay: growth of human tumour cells (NCI), 48 h

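Briefly, cells in 96-well plates were exposed to five compound concentrations for 48 h, and endpoints were estimated by linear interpolation. Here, GI50 denotes the concentration required for 50% inhibition of growth. TGI denotes the concentration required for complete inhibition of growth.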 Where only a bound is given, the exact number is not on record here.

`S=c1ssnc1-c1cc2ccccc2o1`: the GI50 with A549 NSCLC is 16.3 µM; in the assay on BT-549 breast, 13.8 µM; with CCRF-CEM leukemia, 3.23 µM; in the assay with EKVX NSCLC, 11.8 µM; with M14 melanoma it was 16.5 µM; in the assay on MDA-MB-231 breast, 13.3 µM. Also, the GI50 in the assay on MOLT-4 leukemia is 3.39 µM; with NCI-H23 lung, 24.4 µM; in the assay on NCI/ADR-RES ovarian, 25.7 µM; in the assay on PC-3 prostate it was 3.82 µM. Besides, the TGI in the assay on A549 NSCLC is 32.1 µM; in the assay with BT-549 breast, 27.7 µM; with CCRF-CEM leukemia it was > 100 µM; in the assay with EKVX NSCLC, 30.8 µM; in the assay on M14 melanoma, 60.7 µM; in the assay with MDA-MB-231 breast, 29.4 µM. Further, the TGI with MOLT-4 leukemia was > 100 µM; in the assay with NCI-H23 lung, 75.5 µM; with NCI/ADR-RES ovarian it was 90.7 µM; with PC-3 prostate, 24.2 µM.
Take `COC(=O)c1c(C)nc(C)c2c1C(=O)C(Br)=C(NCc1ccccc1)C2=O`: the GI50 in the assay with A549 NSCLC is 2.56 µM; in the assay on BT-549 breast, 4.09 µM; in the assay on CCRF-CEM leukemia, 3.11 µM; with EKVX NSCLC, 2.12 µM; in the assay on M14 melanoma, 2.06 µM; with MDA-MB-231 breast, 2.11 µM. Moreover, the GI50 in the assay with MOLT-4 leukemia was 3.09 µM; in the assay with NCI-H23 lung, 1.89 µM; in the assay with NCI/ADR-RES ovarian it was 2.83 µM; with PC-3 prostate, 2.73 µM. The TGI with A549 NSCLC came out at 6.64 µM; with BT-549 breast it was 15.4 µM; with CCRF-CEM leukemia, 36.8 µM; in the assay with EKVX NSCLC, 5.35 µM; with M14 melanoma, 4.81 µM; in the assay on MDA-MB-231 breast, 8.4 µM. Also, the TGI in the assay on MOLT-4 leukemia worked out at 10.8 µM; in the assay on NCI-H23 lung, 5.19 µM; with NCI/ADR-RES ovarian it was 8.16 µM; in the assay with PC-3 prostate, 10.9 µM.
For `Nc1ncn([C@H]2CC(O)[C@@H](CO)S2)c(=O)n1` (some centres not stated), the GI50 was 2.79 µM in the assay on A549 NSCLC; 8.27 µM in the assay on BT-549 breast; 2.45 µM in the assay with CCRF-CEM leukemia; 32.8 µM in the assay on EKVX NSCLC; 2.62 µM in the assay with M14 melanoma; 3.57 µM with MDA-MB-231 breast. The GI50 was 1.08 µM in the assay on MOLT-4 leukemia, 5.34 µM in the assay on NCI-H23 lung, 0.559 µM in the assay with NCI/ADR-RES ovarian and 8.93 µM in the assay with PC-3 prostate. Further, the TGI in the assay with A549 NSCLC, in the assay with BT-549 breast, in the assay with CCRF-CEM leukemia, in the assay on EKVX NSCLC, with M14 melanoma and in the assay on MDA-MB-231 breast was > 100 µM each time. For the same compound, the TGI with MOLT-4 leukemia, with NCI-H23 lung, with NCI/ADR-RES ovarian and with PC-3 prostate was > 100 µM each time.
For the compound `Cc1ccc(-c2nc(NCCOCCOCCN)nc(N3CCN(c4ccccn4)CC3)n2)cc1`, the GI50 is 17.1 µM with A549 NSCLC; 14.1 µM with BT-549 breast; 14.1 µM in the assay on CCRF-CEM leukemia; 15.8 µM with EKVX NSCLC; 5.52 µM in the assay with M14 melanoma; 14.1 µM in the assay with MDA-MB-231 breast. Moreover, the GI50 was 15.8 µM in the assay on MOLT-4 leukemia, 16.4 µM in the assay with NCI-H23 lung, 15.3 µM with NCI/ADR-RES ovarian and 15.5 µM in the assay on PC-3 prostate. The TGI in the assay with A549 NSCLC was determined as 36.3 µM; in the assay on BT-549 breast, 29.2 µM; with CCRF-CEM leukemia, 37.1 µM; with EKVX NSCLC, 33 µM; in the assay with M14 melanoma, 11.9 µM; with MDA-MB-231 breast, 29.8 µM. The TGI is 36 µM with MOLT-4 leukemia, 32 µM with NCI-H23 lung, 31.1 µM in the assay with NCI/ADR-RES ovarian and 31 µM in the assay with PC-3 prostate.
On to `CC(C)(O)C1COC2=C1C(=O)c1ccccc1C2=O` (configuration not stated), for which the TGI is > 100 µM in the assay on A549 NSCLC; 42.9 µM in the assay on BT-549 breast; > 100 µM in the assay with CCRF-CEM leukemia; > 100 µM in the assay with EKVX NSCLC; > 100 µM with M14 melanoma; > 100 µM in the assay with MDA-MB-231 breast. In addition, the TGI was 71.2 µM with MOLT-4 leukemia, 38.8 µM in the assay with NCI-H23 lung, 62.1 µM with NCI/ADR-RES ovarian and > 100 µM in the assay with PC-3 prostate.
For the compound `Cc1cc(NC(=O)NCc2ccc(N3C(N)=NC(N)=NC3(C)C)cc2)ccc1S(=O)(=O)F`, the GI50 with A549 NSCLC was 0.528 µM; in the assay on BT-549 breast, 4.97 µM; in the assay with CCRF-CEM leukemia, 0.815 µM; with EKVX NSCLC, 13.8 µM; in the assay with M14 melanoma it was 1.51 µM; with MDA-MB-231 breast, > 62.2 µM. The GI50 in the assay with MOLT-4 leukemia is 2.01 µM; with NCI-H23 lung, 4.29 µM; with NCI/ADR-RES ovarian, > 100 µM; in the assay on PC-3 prostate, 0.0962 µM. Further, the TGI in the assay with A549 NSCLC was > 32.1 µM; with BT-549 breast it was > 67.6 µM; with CCRF-CEM leukemia it was > 100 µM; with EKVX NSCLC, > 100 µM; with M14 melanoma it was > 100 µM; with MDA-MB-231 breast it was > 100 µM. The TGI with MOLT-4 leukemia is > 100 µM; in the assay on NCI-H23 lung, > 100 µM; with NCI/ADR-RES ovarian, > 100 µM; in the assay on PC-3 prostate, 31 µM.
In the case of `COc1cc2c(c(OC)c1OC)-c1cc(I)c(O)cc1[C@@H](NC(C)=O)CC2`, the GI50 in the assay with A549 NSCLC was 0.0695 µM; in the assay with BT-549 breast, 0.134 µM; with CCRF-CEM leukemia, 0.0364 µM; in the assay with EKVX NSCLC, 0.419 µM; with M14 melanoma, 0.0311 µM; in the assay on MDA-MB-231 breast it was 0.0859 µM. The GI50 was 0.0437 µM with MOLT-4 leukemia, 0.046 µM in the assay on NCI-H23 lung, 0.681 µM in the assay with NCI/ADR-RES ovarian and 0.0395 µM in the assay on PC-3 prostate. Moreover, the TGI was > 40.1 µM in the assay with A549 NSCLC; 2.95 µM in the assay with BT-549 breast; > 100 µM in the assay with CCRF-CEM leukemia; > 100 µM with EKVX NSCLC; 0.0969 µM with M14 melanoma; > 100 µM with MOLT-4 leukemia. Further, the TGI in the assay with NCI-H23 lung was > 100 µM; with NCI/ADR-RES ovarian, > 20.3 µM; in the assay on PC-3 prostate, > 100 µM.
Consider `CCc1ccc2c(c1)C(=O)c1c-2n(CCCN)c(=O)c2cc(OC)c(OC)cc12`, for which the GI50 in the assay on BT-549 breast was 1.65 µM; in the assay on CCRF-CEM leukemia, 1.1 µM; in the assay on EKVX NSCLC, 1.92 µM; in the assay on M14 melanoma, 1.8 µM; with MDA-MB-231 breast, 1.63 µM; with MOLT-4 leukemia it was 1.75 µM. Besides, the results for the GI50 with NCI-H23 lung, in the assay with NCI/ADR-RES ovarian and in the assay on PC-3 prostate were 1.81 µM, 1.68 µM and 1.54 µM, respectively. The TGI with BT-549 breast was found to be 3.17 µM; with CCRF-CEM leukemia, 2.48 µM; in the assay on EKVX NSCLC it was 3.44 µM; with M14 melanoma it was 3.37 µM; in the assay on MDA-MB-231 breast it was 3.14 µM; with MOLT-4 leukemia, 3.52 µM. For the same compound, the TGI in the assay with NCI-H23 lung stood at 3.3 µM; in the assay on NCI/ADR-RES ovarian it was 3.22 µM; with PC-3 prostate, 2.92 µM.

Source of the values: PubChem BioAssay (NCI).
